# Results as given in patent publication EP0044212B1, “Herbicidal o-alkylsulfonyloxy- and o-alkylsulfonylamino-benzenesulfonamides” (E.I. DU PONT DE NEMOURS AND COMPANY, priority 1980, dated 1982).
# Experiments:
# Jimsonweed = experiment: Test F over-the-top soil/foliage treatment; format: in vivo, Datura stramonium; details: soil/foliage spray, ~14 days
# Protocol: (§1) The test chemicals, dissolved in a non-phytotoxic solvent, were applied in an overall spray to the foliage and surrounding […] of selected plant species. […] Approximately fourteen days after treatment, all species were visually compared to untreated controls and rated for response to treatment.
# (§2) All plant species were seeded in Woodstown sandy loam soil and grown in a greenhouse. The following species were grown in soil contained in plastic pots (25 cm diameter by 13 cm deep): soybeans, cotton, alfalfa, corn, rice, wheet, sorghum, velvetleaf (Abutilon theophrasti), sesbania (Sesbania exaltata), Cassia (Cassia tora), morningglory (Ipomoea hederacea), jimsonweed (Datura stramonium), cocklebur (Xanthium pensylvanicum), crabgrass (Digitaria spp.), nutsedge (Cyperus rotundus), barnyardgrass (Echinochloa crusgalli), giant foxtail (Setaria faberii) and wild oats (Avena fatua). The following species were grown in soil in a paper cup (12 cm diameter by 13 cm deep): sunflower, sugarbeets, and mustard. All plants were sprayed approximately 14 days after planting.
# Alfalfa = experiment: Test F over-the-top soil/foliage treatment; format: in vivo; parameters: scale not given here; details: soil/foliage spray, ~14 days
# Protocol: as §1, §2
# Sorghum [1] = experiment: Test F over-the-top soil/foliage treatment; format: in vivo; parameters: scale not given here; details: soil/foliage spray, ~14 days
# Protocol: as §1, §2
# Cotton = experiment: Test B pre-emergence on Fallsington silt loam; format: in vivo; details: 28 days
# Excerpt: (§3) Two plastic bulb pans were filled with fertilized and limed Fallsington silt loam soil. One pan was planted with corn, sorghum, Kentucky bluegrass and several grassy weeds. The other pan was planted with cotton, soybeans, purple nutsedge (Cyperus rotundus), and several broadleaf weeds. The following grassy and broadleaf weeds were planted: crabgrass (Digitaria sanguinalis), barnyardgrass (Echinochloa crusgalli), wild oats (Avena fatua), johnsongrass (Sorghum halepense), dallisgrass (Paspalum dilatatum), giant foxtail (Setaria faberii), cheatgrass (Bromus secalinus), mustard (Brassica arvensis), cocklebur (Xanthium pensylvanicum), pigweed (Amaranthus retroflexus), morningglory (Ipomoea hederacea), cassia (Cassia tora), teaweed (Sida spinosa), velvetleaf (Abutilon theophrasti), and jimsonweed (Datura stramonium). A 12.5 cm diameter plastic pot was also filed with prepared soil and planted with rice and wheat. Another 12.5 cm pot was planted with sugarbeets. The above four containers were treated pre- emergence with several test compounds within the scope of the invention.
# (§4) Twenty-eight days after treatment, the plants were evaluated and visually rated for response to the chemical treatments utilizing the rating system described previously for Test A. The data are summarized in Table B.
# Sorghum [2] = experiment: Test B pre-emergence on Fallsington silt loam; format: in vivo; details: 28 days
# Excerpt: as §3, §4
# Barnyardgrass [3] = experiment: Test F over-the-top soil/foliage treatment; format: in vivo, Echinochloa crusgalli; parameters: scale not given here; details: soil/foliage spray, ~14 days
# Protocol: as §1, §2
# Cocklebur = experiment: Test B pre-emergence on Fallsington silt loam; format: in vivo, Xanthium pensylvanicum; details: 28 days
# Excerpt: as §3, §4
# Dallisgrass = experiment: Test B pre-emergence on Fallsington silt loam; format: in vivo, Paspalum dilatatum; parameters: scale not given here; details: 28 days
# Excerpt: as §3, §4
# Wild Oats [4] = experiment: Test F over-the-top soil/foliage treatment; format: in vivo, Avena fatua; parameters: scale not given here; details: soil/foliage spray, ~14 days
# Protocol: as §1, §2
# Morningglory = experiment: Test B pre-emergence on Fallsington silt loam; format: in vivo, Ipomoea hederacea; details: 28 days
# Excerpt: as §3, §4
# Mustard = experiment: Test F over-the-top soil/foliage treatment; format: in vivo; details: soil/foliage spray, ~14 days
# Protocol: as §1, §2
# Corn [5] = experiment: Test F over-the-top soil/foliage treatment; format: in vivo; details: soil/foliage spray, ~14 days
# Protocol: as §1, §2
# Sunflower = experiment: Test F over-the-top soil/foliage treatment; format: in vivo; details: soil/foliage spray, ~14 days
# Protocol: as §1, §2
# Sugarbeets [6] = experiment: Test F over-the-top soil/foliage treatment; format: in vivo; details: soil/foliage spray, ~14 days
# Protocol: as §1, §2
# Crabgrass [7] = experiment: Test F over-the-top soil/foliage treatment; format: in vivo, Digitaria spp.; parameters: scale not given here; details: soil/foliage spray, ~14 days
# Protocol: as §1, §2
# Cassia = experiment: Test B pre-emergence on Fallsington silt loam; format: in vivo, Cassia tora; details: 28 days
# Excerpt: as §3, §4
# Wheat = experiment: Test F over-the-top soil/foliage treatment; format: in vivo, wheet; parameters: scale not given here; details: soil/foliage spray, ~14 days
# Protocol: as §1, §2
# Wild Oats [8] = experiment: Test B pre-emergence on Fallsington silt loam; format: in vivo, Avena fatua; parameters: scale not given here; details: 28 days
# Excerpt: as §3, §4
# Sugarbeets [9] = experiment: Test B pre-emergence on Fallsington silt loam; format: in vivo; parameters: scale not given here; details: 28 days
# Excerpt: as §3, §4
# Johnsongrass = experiment: Test B pre-emergence on Fallsington silt loam; format: in vivo, Sorghum halepense; parameters: scale not given here; details: 28 days
# Excerpt: as §3, §4
# Pigweed = experiment: Test B pre-emergence on Fallsington silt loam; format: in vivo, Amaranthus retroflexus; details: 28 days
# Excerpt: as §3, §4
# Sesbania = experiment: Test F over-the-top soil/foliage treatment; format: in vivo, Sesbania exaltata; parameters: scale not given here; details: soil/foliage spray, ~14 days
# Protocol: as §1, §2
# Cheatgrass = experiment: Test B pre-emergence on Fallsington silt loam; format: in vivo, Bromus secalinus; details: 28 days
# Excerpt: as §3, §4
# Giant Foxtail = experiment: Test B pre-emergence on Fallsington silt loam; format: in vivo, Setaria faberii; details: 28 days
# Excerpt: as §3, §4
# Rice = experiment: Test B pre-emergence on Fallsington silt loam; format: in vivo; details: 28 days
# Excerpt: as §3, §4
# Barnyardgrass [10] = experiment: Test B pre-emergence on Fallsington silt loam; format: in vivo, Echinochloa crusgalli; details: 28 days
# Excerpt: as §3, §4
# Soybean = experiment: Test B pre-emergence on Fallsington silt loam; format: in vivo, soybeans; details: 28 days
# Excerpt: as §3, §4
# Crabgrass [11] = experiment: Test B pre-emergence on Fallsington silt loam; format: in vivo, Digitaria sanguinalis; parameters: scale not given here; details: 28 days
# Excerpt: as §3, §4
# Corn [12] = experiment: Test B pre-emergence on Fallsington silt loam; format: in vivo; parameters: scale not given here; details: 28 days
# Excerpt: as §3, §4
# Nutsedge = experiment: Test B pre-emergence on Fallsington silt loam; format: in vivo, Cyperus rotundus; details: 28 days
# Excerpt: as §3, §4
smiles,measurement,setting,value
"COc1cc(OC)nc(NC(=O)NS(=O)(=O)c2ccccc2OS(C)(=O)=O)n1 [Compound 1, N-[(4,6-Dimethoxypyrimidin-2-yl)aminocarbonyl]-2-hydroxybenzenesulfonamide, methanesulfonate]",Jimsonweed response rating,Jimsonweed; 0.003 kg/ha,0
same,Jimsonweed response rating,Jimsonweed; 0.007 kg/ha,0
same,Jimsonweed response rating,Jimsonweed; 0.06 kg/ha,9C
same,Alfalfa response rating,Alfalfa; 0.015 kg/ha,5C
same,Alfalfa response rating,Alfalfa; 0.06 kg/ha,9C
same,Sorghum response rating,Sorghum [1]; 0.015 kg/ha,9C
same,Sorghum response rating,Sorghum [1]; 0.06 kg/ha,10C
same,Cotton response rating,Cotton; 0.03 kg/ha,8G
same,Sorghum response rating,Sorghum [2]; 0.12 kg/ha,10C
same,Barnyardgrass response rating,Barnyardgrass [3]; 0.015 kg/ha,10C
same,Barnyardgrass response rating,Barnyardgrass [3]; 0.06 kg/ha,10C
same,Cocklebur response rating,Cocklebur; 0.03 kg/ha,6G
same,Dallisgrass response rating,Dallisgrass; 0.03 kg/ha,7G
same,Wild Oats response rating,Wild Oats [4]; 0.003 kg/ha,3G
same,Wild Oats response rating,Wild Oats [4]; 0.007 kg/ha,3G
same,Wild Oats response rating,Wild Oats [4]; 0.015 kg/ha,3G
same,Wild Oats response rating,Wild Oats [4]; 0.06 kg/ha,6G
same,Morningglory response rating,Morningglory; 0.03 kg/ha,5G
same,Mustard response rating,Mustard; 0.003 kg/ha,10C
same,Mustard response rating,Mustard; 0.007 kg/ha,10C
same,Corn response rating,Corn [5]; 0.06 kg/ha,10C
same,Sunflower response rating,Sunflower; 0.003 kg/ha,10C
same,Sunflower response rating,Sunflower; 0.007 kg/ha,10C
same,Sugarbeets response rating,Sugarbeets [6]; 0.007 kg/ha,10C
same,Crabgrass response rating,Crabgrass [7]; 0.003 kg/ha,0
same,Crabgrass response rating,Crabgrass [7]; 0.007 kg/ha,5G
same,Crabgrass response rating,Crabgrass [7]; 0.015 kg/ha,2C
same,Cassia response rating,Cassia; 0.12 kg/ha,10C
same,Wheat response rating,Wheat; 0.003 kg/ha,1G
same,Wheat response rating,Wheat; 0.007 kg/ha,0
same,Wheat response rating,Wheat; 0.015 kg/ha,0
same,Wheat response rating,Wheat; 0.06 kg/ha,0
same,Wild Oats response rating,Wild Oats [8]; 0.03 kg/ha,6G
same,Wild Oats response rating,Wild Oats [8]; 0.12 kg/ha,10C
same,Sugarbeets response rating,Sugarbeets [9]; 0.03 kg/ha,10C
same,Sugarbeets response rating,Sugarbeets [9]; 0.12 kg/ha,10C
same,Johnsongrass response rating,Johnsongrass; 0.12 kg/ha,10C
same,Pigweed response rating,Pigweed; 0.03 kg/ha,10C
same,Sesbania response rating,Sesbania; 0.003 kg/ha,10C
same,Sesbania response rating,Sesbania; 0.007 kg/ha,10C
same,Sesbania response rating,Sesbania; 0.015 kg/ha,9C
same,Sesbania response rating,Sesbania; 0.06 kg/ha,9C
"CCCS(=O)(=O)Oc1ccccc1S(=O)(=O)NC(=O)Nc1nc(OC)cc(OC)n1 [Compound 36, N-[(4,6-dimethoxypropimidin-2-yl)aminocarbonyl]-2-hydroxybenzenesulfonamide, 1-propanesulfonate]",Cheatgrass response rating,Cheatgrass; 0.06 kg/ha,6G
same,Cheatgrass response rating,Cheatgrass; 0.25 kg/ha,7G
same,Giant Foxtail response rating,Giant Foxtail; 0.06 kg/ha,4G
same,Rice response rating,Rice; 0.06 kg/ha,3G
same,Rice response rating,Rice; 0.25 kg/ha,5G
same,Cotton response rating,Cotton; 0.06 kg/ha,4G
same,Barnyardgrass response rating,Barnyardgrass [10]; 0.06 kg/ha,4G
same,Dallisgrass response rating,Dallisgrass; 0.06 kg/ha,4G
same,Dallisgrass response rating,Dallisgrass; 0.25 kg/ha,5G
same,Soybean response rating,Soybean; 0.06 kg/ha,2G
same,Morningglory response rating,Morningglory; 0.06 kg/ha,4G
same,Cassia response rating,Cassia; 0.06 kg/ha,6G
same,Wild Oats response rating,Wild Oats [8]; 0.06 kg/ha,4G
same,Wild Oats response rating,Wild Oats [8]; 0.25 kg/ha,4G
same,Crabgrass response rating,Crabgrass [11]; 0.06 kg/ha,2G
same,Crabgrass response rating,Crabgrass [11]; 0.25 kg/ha,4G
same,Corn response rating,Corn [12]; 0.06 kg/ha,3G
same,Corn response rating,Corn [12]; 0.25 kg/ha,4G
same,Nutsedge response rating,Nutsedge; 0.06 kg/ha,7G
"CCCS(=O)(=O)Oc1ccccc1S(=O)(=O)NC(=O)Nc1nc(C)nc(OC)n1 [Compound 39, 2-hydroxy-N-[(4-methoxy-6-methyl-1,3,5-triazin-2-yl)aminocarbonyl]benzenesulfonamide, 1-propanesulfonate]",Cheatgrass response rating,Cheatgrass; 0.06 kg/ha,0
same,Cheatgrass response rating,Cheatgrass; 0.25 kg/ha,3G
same,Jimsonweed response rating,Jimsonweed; 0.12 kg/ha,0
same,Giant Foxtail response rating,Giant Foxtail; 0.06 kg/ha,0
same,Giant Foxtail response rating,Giant Foxtail; 0.25 kg/ha,2G
same,Alfalfa response rating,Alfalfa; 0.06 kg/ha,10C
same,Sorghum response rating,Sorghum [1]; 0.007 kg/ha,3G
same,Sorghum response rating,Sorghum [1]; 0.03 kg/ha,5G
same,Sorghum response rating,Sorghum [1]; 0.06 kg/ha,0
same,Sorghum response rating,Sorghum [1]; 0.12 kg/ha,0
same,Rice response rating,Rice; 0.06 kg/ha,0
same,Rice response rating,Rice; 0.25 kg/ha,0
same,Sorghum response rating,Sorghum [2]; 0.06 kg/ha,4G
same,Barnyardgrass response rating,Barnyardgrass [3]; 0.007 kg/ha,2G
same,Barnyardgrass response rating,Barnyardgrass [3]; 0.015 kg/ha,0
same,Barnyardgrass response rating,Barnyardgrass [3]; 0.03 kg/ha,3G
same,Barnyardgrass response rating,Barnyardgrass [3]; 0.06 kg/ha,0
same,Barnyardgrass response rating,Barnyardgrass [3]; 0.12 kg/ha,0
same,Barnyardgrass response rating,Barnyardgrass [10]; 0.06 kg/ha,4G
same,Barnyardgrass response rating,Barnyardgrass [10]; 0.25 kg/ha,5G
same,Cocklebur response rating,Cocklebur; 0.25 kg/ha,10C
same,Dallisgrass response rating,Dallisgrass; 0.06 kg/ha,3G
same,Dallisgrass response rating,Dallisgrass; 0.25 kg/ha,0
same,Wild Oats response rating,Wild Oats [4]; 0.007 kg/ha,0
same,Wild Oats response rating,Wild Oats [4]; 0.03 kg/ha,2G
same,Wild Oats response rating,Wild Oats [4]; 0.06 kg/ha,0
same,Wild Oats response rating,Wild Oats [4]; 0.12 kg/ha,0
same,Soybean response rating,Soybean; 0.06 kg/ha,3G
same,Soybean response rating,Soybean; 0.25 kg/ha,4G
same,Morningglory response rating,Morningglory; 0.06 kg/ha,9G
same,Mustard response rating,Mustard; 0.06 kg/ha,10C
same,Mustard response rating,Mustard; 0.12 kg/ha,10C
same,Corn response rating,Corn [5]; 0.007 kg/ha,2G
same,Corn response rating,Corn [5]; 0.06 kg/ha,0
same,Corn response rating,Corn [5]; 0.12 kg/ha,0
same,Sunflower response rating,Sunflower; 0.015 kg/ha,10C
same,Sunflower response rating,Sunflower; 0.06 kg/ha,10C
same,Sunflower response rating,Sunflower; 0.12 kg/ha,10C
same,Sugarbeets response rating,Sugarbeets [6]; 0.06 kg/ha,10C
same,Crabgrass response rating,Crabgrass [7]; 0.007 kg/ha,0
same,Crabgrass response rating,Crabgrass [7]; 0.015 kg/ha,0
same,Crabgrass response rating,Crabgrass [7]; 0.03 kg/ha,0
same,Crabgrass response rating,Crabgrass [7]; 0.06 kg/ha,0
same,Crabgrass response rating,Crabgrass [7]; 0.12 kg/ha,0
same,Wheat response rating,Wheat; 0.007 kg/ha,0
same,Wheat response rating,Wheat; 0.015 kg/ha,0
same,Wheat response rating,Wheat; 0.03 kg/ha,0
same,Wheat response rating,Wheat; 0.06 kg/ha,0
same,Wheat response rating,Wheat; 0.12 kg/ha,0
same,Wild Oats response rating,Wild Oats [8]; 0.06 kg/ha,3G
same,Wild Oats response rating,Wild Oats [8]; 0.25 kg/ha,3G
same,Crabgrass response rating,Crabgrass [11]; 0.06 kg/ha,2G
same,Crabgrass response rating,Crabgrass [11]; 0.25 kg/ha,2G
same,Corn response rating,Corn [12]; 0.06 kg/ha,2G
same,Corn response rating,Corn [12]; 0.25 kg/ha,4G
same,Sugarbeets response rating,Sugarbeets [9]; 0.25 kg/ha,10C
same,Nutsedge response rating,Nutsedge; 0.06 kg/ha,4G
same,Nutsedge response rating,Nutsedge; 0.25 kg/ha,6G
same,Johnsongrass response rating,Johnsongrass; 0.06 kg/ha,4G
same,Johnsongrass response rating,Johnsongrass; 0.25 kg/ha,3G
same,Pigweed response rating,Pigweed; 0.06 kg/ha,4G
same,Sesbania response rating,Sesbania; 0.12 kg/ha,10C
